Data as given in patent US11180452B2, “Methods and compositions for selectively inhibiting pathogenic microbes” (priority 2019, dated 2021).
Values after ≈ are worked out from the molar mass of the structure shown. Read-outs that look alike come from different tables or passages of the source.

Columns and labels:
[1] = test system: Trichophyton rubrum; experiment: MIC against Trichophyton rubrum; format: cell-based; details: Trichophyton rubrum Castellani Sabouraud ATCC: 28188; read-out: MIC
[2] = test system: NoSpin HepaRG cells; experiment: HepaRG cytotoxicity, MTT assay EC50; format: cell-based, human; details: Homo sapiens, HepaRG; cytotoxicity EC50, Table 9
Procedure: Additionally, the antimicrobial compounds were analyzed for cytotoxicity. […] We utilized the standard MTT assay (Promega CellTiter 96) and GraphPad Prism 7 software to determine EC50 values for each analogue. Briefly, 20,000 HepG2 cells in 200 μl of the ATCC recommended media were seeded in each well of a 96-well plate with a moisture barrier created in the outermost wells. The cells were allowed to attach overnight at 37° C., and then observed under phase contrast microscopy for proper morphological characteristics. […] Once incubations were complete, the spectrophotometric absorbance of the samples was measured at a wavelength of 595 nm. […] For the HepaRG assay, NoSpin HepaRG™ cells (Lonza, cat #NSHPRG) were thawed and plated with 20,000 cells per well. They were allowed to attach for 4 h (optimal DME profile per Lonza's testing) before dosing following the identical protocol as above.

[3] = test system: Bacillus subtilis; experiment: Bacillus subtilis MIC / MBC; format: cell-based; details: for MBC: Bacillus subtilis NRRL: B-571, minimum bactericidal concentration; for MIC: Bacillus subtilis
[4] = test system: Bacillus thuringiensis; format: cell-based; details: for MIC: Bacillus thuringiensis
[5] = test system: Burkholderia thailandensis Brett et al ATCC: 700388; experiment: microbe, parasite or virus in culture; format: cell-based
[6] = test system: Candida glabrata; experiment: Candida glabrata MIC / MFC; format: cell-based; details: Nakaseomyces glabratus; for MIC: read-out: MIC; for MFC: read-out: MFC
[7] = test system: Francisella tularensis subsp. Holarctica Strain LVSR NR-597; experiment: microbe, parasite or virus in culture; format: cell-based
[8] = test system: N. gonorrhoeae; experiment: N. gonorrhoeae MIC; format: cell-based; details: Neisseria gonorrhoeae
[9] = test system: C. albicans; experiment: Candida albicans MIC / MFC; format: cell-based
[10] = test system: Francisella tularensis strains; experiment: microbe, parasite or virus in culture; format: cell-based
[11] = test system: cell wall synthesis of S. aureus; experiment: Macromolecular synthesis assay, glucosamine incorporation into cell wall; format: cell-based; details: dose-response, FIG. 2A-2B
[12] = Bacillus subtilis (Ehrenberg 1835) Cohn 1872 NRRL: B-571, read-out: MIC
[13] = Bacillus thuringiensis Berliner ATCC: 10792
[14] = Bacillus thuringiensis Berliner ATCC: 10792, read-out: MIC

`Fc1ccc2[nH]cc(Sc3ccc(Br)cc3)c2c1` [Compound 174E, 3-((4-bromophenyl)thio)-5-fluoro-1H-indole] gave an MIC [1] of 2.01 µg/mL (≈ 6.24 µM), an EC50 [2] of 23.6 µg/mL (≈ 73.2 µM) and an MBC [3] of 3.13 µg/mL (≈ 9.71 µM). For the same compound, the MIC [3, 12] was 1.56 µg/mL (≈ 4.84 µM), the MBC [4, 13] was 3.13 µg/mL (≈ 9.71 µM) and the MIC [4, 14] was 1.56 µg/mL (≈ 4.84 µM). For the same compound, the MIC [5] was over 50 µg/mL, the MIC ([6]; Candida glabrata #584 (Table 2)) was 3.13 µg/mL (≈ 9.71 µM) and the MIC [7] was 0.78 µg/mL (≈ 2.42 µM). The MIC ([8]; strain #167) was under 0.39 µg/mL, the MIC ([8]; strain #203) was 1.56 µg/mL (≈ 4.84 µM) and the MIC ([8]; strain #205) was 1.56 µg/mL (≈ 4.84 µM).

In the case of `Brc1cccc(Sc2c[nH]c3ccc(Br)cc23)c1` [Compound 174N, 5-bromo-3-((3-bromophenyl)thio)-1H-indole], the MIC [1] is reported as under 0.57 µg/mL, the EC50 [2] is reported as 29.5 µg/mL (≈ 77 µM) and the MBC [3] is reported as 10 µg/mL (≈ 26.1 µM). For the same compound, the MIC [3, 12] was 1.25 µg/mL (≈ 3.26 µM), the MIC ([3]; strain B-571 (Table 4), read-out: Bacillus subtilis MIC) was 1.25 µg/mL (≈ 3.26 µM) and the MIC ([3]; strain B-1985, read-out: Bacillus subtilis MIC) was 1.25 µg/mL (≈ 3.26 µM). For the same compound, the MIC ([3]; strain B-3665, read-out: Bacillus subtilis MIC) was 1.25 µg/mL (≈ 3.26 µM), the MIC ([3]; strain B-14322, read-out: Bacillus subtilis MIC) was 1.25 µg/mL (≈ 3.26 µM) and the MIC ([3]; strain B-41090, read-out: Bacillus subtilis MIC) was 2.5 µg/mL (≈ 6.53 µM). For the same compound, the MIC ([3]; strain BD-594, read-out: Bacillus subtilis MIC) was 2.5 µg/mL (≈ 6.53 µM), the MBC [4, 13] was 10 µg/mL (≈ 26.1 µM) and the MIC ([4]; ATCC10792, […]) was 1.25 µg/mL (≈ 3.26 µM). The MIC [4, 14] was 1.25 µg/mL (≈ 3.26 µM), the MIC ([4]; strain B-1596) was 2.5 µg/mL (≈ 6.53 µM) and the MBC [5] was over 150 µg/mL. It also gave an MIC [5] of 50 µg/mL (≈ 131 µM), an MIC ([6]; C. glabrata strain #325) of over 50 µg/mL and an MFC ([6]; C. glabrata strain #584 (Table 7)) of 50 µg/mL (≈ 131 µM). For the same compound, the MFC ([6]; Candida glabrata #584 (Table 2), minimum fungicidal concentration) was 50 µg/mL (≈ 131 µM), the MIC [7] was 1.25 µg/mL (≈ 3.26 µM) and the MIC ([8]; strain #167) was 1.56 µg/mL (≈ 4.07 µM). It also gave an MFC ([9]; C. albicans strain #761, read-out: MFC) of over 50 µg/mL, an MIC ([9]; C. albicans strain #761, read-out: MIC) of 12.5 µg/mL (≈ 32.6 µM) and an MFC ([9]; C. albicans strain #762, read-out: MFC) of 6.25 µg/mL (≈ 16.3 µM). For the same compound, the MIC ([9]; C. albicans strain #762, read-out: MIC) was 3.13 µg/mL (≈ 8.17 µM), the MIC50 [10] was 4 µg/mL (≈ 10.4 µM) and the MIC ([10]; read-out: F. tularensis BSL-3 MIC, Strain 100) was 8 µg/mL (≈ 20.9 µM). It also gave an MIC ([10]; read-out: F. tularensis BSL-3 MIC, strain HN-63) of 4 µg/mL (≈ 10.4 µM), an MIC ([10]; read-out: F. tularensis BSL-3 MIC, strain LVS) of 6.67 µg/mL (≈ 17.4 µM) and an MIC ([10]; read-out: F. tularensis BSL-3 MIC, strain MA00-2987) of 6.67 µg/mL (≈ 17.4 µM). It also gave an MIC ([10]; read-out: F. tularensis BSL-3 MIC, strain MO #1) of 3.33 µg/mL (≈ 8.69 µM), an MIC ([10]; read-out: F. tularensis BSL-3 MIC, strain MO #2) of 3.67 µg/mL (≈ 9.58 µM) and an MIC ([10]; read-out: F. tularensis BSL-3 MIC, strain MO #3) of 4 µg/mL (≈ 10.4 µM). It also gave an MIC ([10]; read-out: F. tularensis BSL-3 MIC, strain OR-96) of 4 µg/mL (≈ 10.4 µM), an MIC ([10]; read-out: F. tularensis BSL-3 MIC, strain SCHU S4) of over 8 µg/mL and an MIC ([10]; read-out: F. tularensis BSL-3 MIC, strain WY-96) of 4 µg/mL (≈ 10.4 µM). For the same compound, the MIC ([10]; read-out: MAX, highest MIC over the Francisella tularensis strains) was over 8 µg/mL and the MIC ([10]; read-out: MIN, lowest MIC over the Francisella tularensis strains) was 3.33 µg/mL (≈ 8.69 µM).

In the case of `CN[C@H](CC(C)C)C(=O)N[C@H]1C(=O)N[C@@H](CC(N)=O)C(=O)N[C@H]2C(=O)N[C@H]3C(=O)N[C@H](C(=O)N[C@H](C(=O)O)c4cc(O)cc(O)c4-c4cc3ccc4O)[C@H](O)c3ccc(c(Cl)c3)Oc3cc2cc(c3O[C@@H]2O[C@H](CO)[C@@H](O)[C@H](O)[C@H]2O[C@H]2C[C@](C)(N)[C@H](O)[C@H](C)O2)Oc2ccc(cc2Cl)[C@H]1O` [vancomycin, reference compound], the “cell wall synthesis inhibition (glucosamine incorporation)” value [11] is reported as “increasingly inhibits glucosamine from incorporating into a cell wall”.
